Assay results: patent publication US6967196B1, “Sulfonamide compounds and uses thereof” (Bristol-Myers Squibb Company, priority 1999, dated 2005)
Where a name gives a salt, the structure may show the parent alone. Read-outs that look alike come from different tables or passages of the source.

Test system: amyloid β production in transfected H4 (human neuroglioma) cells stably expressing APP constructs
Assay: In vitro cell-based assay of inhibitors of amyloid β production (ELISA)
Details: amyloid β in medium by ELISA
Method in brief: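 H4 neuroglioma cells stably expressing APP constructs were dosed in fresh medium, screened initially at 10-100 μM, and incubated ~16 h. Medium Aβ was measured by ELISA with C-terminal-epitope capture and N-terminal detection antibodies, quantified from a standard curve, with dose-response testing of actives.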

[1] = Homo sapiens, 16 h, transfected H4 cells stably expressing APP, approximately 16 hours incubation, read-out: ACTIVITY (IC50, inhibition of amyloid β production)
[2] = Homo sapiens, 16 h, transfected H4 cells expressing APP, approximately 16 hours incubation, read-out: ACTIVITY (IC50, inhibition of amyloid β production)
[3] = transfected H4 cells stably expressing APP, approx. 16 h incubation, read-out: ACTIVITY (IC50, inhibition of amyloid β production)
[4] = transfected H4 cells stably expressing APP, approximately 16 hours incubation, read-out: ACTIVITY (IC50, inhibition of amyloid β production)
[5] = Homo sapiens, 16 h, transfected H4 cells stably expressing APP, approximately 16 hours incubation, Table B, read-out: ACTIVITY (IC50, inhibition of amyloid β production)
[6] = transfected H4 cells stably expressing APP constructs, approximately 16 hours incubation, read-out: ACTIVITY (IC50, inhibition of amyloid β production)
[7] = transfected H4 cells stably expressing APP, approximately 16 hours incubation, Table B, read-out: ACTIVITY (IC50, inhibition of amyloid β production)

Molecule: O=S(=O)(c1ccc(Cl)cc1)N(Cc1cc(Cl)ccc1O)c1ccccc1 [Example 975, 4-chloro-N-(5-chloro-2-hydroxybenzyl)-N-phenylbenzenesulfonamide]
- IC50 [1]: > 500 nM

Molecule: C[C@H](C(=O)NCc1cccs1)N(c1cc(Cl)ccc1F)S(=O)(=O)c1ccc(Cl)cc1 [Example 1357]
- IC50 [2]: 100 to 500 nM

Molecule: C[C@H](c1ccccc1Br)N(c1cc(F)ccc1F)S(=O)(=O)c1ccc(Cl)cc1 [Example 855, N-[(1R)-1-(2-bromophenyl)ethyl]-4-chloro-N-(2,5-difluorophenyl)benzenesulfonamide]
- IC50 [1]: 100 to 500 nM

Molecule: CCN(CC)C(=O)CCCc1cc(F)ccc1[C@@H](C)N(c1cc(F)ccc1F)S(=O)(=O)c1ccc(Cl)cc1 [Example 223, 4-[2-((1R)-1-{[(4-chlorophenyl)sulfonyl]-2,5-difluoroanilino}ethyl)-5-fluorophenyl]-N,N-diethylbutanamide]
- IC50 (Homo sapiens, 16 h, Table B, transfected H4 cells stably expressing APP, approximately 16 hours incubation, read-out: ACTIVITY (inhibitory concentration IC50, inhibition of amyloid β production)): 25 to 50 nM

Molecule: O=S(=O)(c1ccc(Cl)cc1)N(Cc1ccccc1OCCCN1CCCCCC1)c1ccccc1 [Example 851, N-{2-[3-(1-azepanyl)propoxy]benzyl}-4-chloro-N-phenylbenzenesulfonamide hydrochloride]
- IC50 [1]: 100 to 500 nM

Molecule: COc1cccc(OC)c1CNC(=O)[C@@H](C)N(c1cc(Cl)ccc1F)S(=O)(=O)c1ccc(Cl)cc1 [Example 1364]
- IC50 (transfected H4 cells expressing APP, approximately 16 hours incubation, read-out: ACTIVITY (IC50, inhibition of amyloid β production)): > 500 nM

Molecule: O=S(=O)(c1ccc(Cl)cc1)N(Cc1ccccc1Cn1ncnn1)c1cc(F)ccc1F [Example 751, 4-chloro-N-(2,5-difluorophenyl)-N-[2-(2H-tetraazol-2-ylmethyl)benzyl]benzenesulfonamide]
- IC50 (Homo sapiens, 16 h, transfected H4 cells stably expressing APP, approx. 16 h incubation, read-out: ACTIVITY (IC50, inhibition of amyloid β production)): 100 to 500 nM

Molecule: N-{3-[2-(1-{[(4-chlorophenyl)sulfonyl]-2,5-difluoroanilino}ethyl)phenoxy]propyl}-4-fluoro-N-methylbenzamide [Example 654]
- IC50 [3]: 100 to 500 nM

Molecule: N-{3-[2-(1-{[(4-chlorophenyl)sulfonyl]-2,5-difluoroanilino}ethyl)phenoxy]propyl}-2,5-bis(trifluoromethyl)benzamide [Example 736]
- IC50 [3]: 100 to 500 nM

Molecule: 2-((1R)-1-{[(4-chlorophenyl)sulfonyl]-2,5-difluoroanilino}ethyl)benzyl cyclohexylcarbamate [Example 675]
- IC50 [3]: 100 to 500 nM

Molecule: C[C@H](c1ccc(F)cc1CCCC(=O)O)N(c1cc(F)ccc1F)S(=O)(=O)c1ccc(Cl)cc1 [Example 1073, 4-[2-((1R)-1-{[(4-chlorophenyl)sulfonyl]-2,5-difluoroanilino}ethyl)-5-fluorophenyl]butanoic acid]
- IC50 [4]: > 500 nM

Molecule: C[C@H](c1ccc(F)cc1CCCC(=O)O)N(c1cc(F)ccc1F)S(=O)(=O)c1ccc(Cl)cc1 [Example 1067, 4-[2-((1R)-1-{[(4-chlorophenyl)sulfonyl]-2,5-difluoroanilino}ethyl)-5-fluorophenyl]butanoic acid]
- IC50 [4]: > 500 nM

Molecule: N-{3-[2-({[(4-chlorophenyl)sulfonyl]-2,5-difluoroanilino}methyl)phenoxy]propyl}-2,3-difluoro-N-methylbenzamide [Example 665]
- IC50 [3]: 100 to 500 nM

Molecule: CC(c1ccccc1OCCN(C)C(=O)N(C)C)N(c1cc(F)ccc1F)S(=O)(=O)c1ccc(Cl)cc1 (stereo not shown) [Example 397, 4-chloro-N-(2,5-difluorophenyl)-N-[1-(2-{2-[[(dimethylamino)carbonyl](methyl)amino]ethoxy}phenyl)ethyl]benzenesulfonamide]
- IC50 [5]: 50 to 100 nM

Molecule: C[C@H](CCCN(C)S(C)(=O)=O)N(c1cc(Cl)ccc1F)S(=O)(=O)c1ccc(Cl)cc1 [Example 1101]
- IC50 [6]: ≤ 25 nM

Molecule: CCCCC(=O)N(CC)CC(C)Oc1ccccc1C(C)N(c1cc(F)ccc1F)S(=O)(=O)c1ccc(Cl)cc1 (stereo not shown) [Example 777, N-{2-[2-(1-{[(4-chlorophenyl)sulfonyl]-2,5-difluoroanilino}ethyl)phenoxy]propyl}-N-ethylpentamide]
- IC50 [3]: 100 to 500 nM

Molecule: N-{2-[2-(1-{[(4-chlorophenyl)sulfonyl]-2,5-difluoroanilino}ethyl)phenoxy]ethyl}-N-ethylcyclopentanecarboxamide [Example 721]
- IC50 [3]: 100 to 500 nM

Molecule: c1cn(CCCNCC2CC2)cn1 [Example 58, N-cyclopropylmethyl-3-(1H)-imidazolylpropylamine]
- IC50 (Table B, transfected H4 cells stably expressing APP, approximately 16 hours incubation, read-out: ACTIVITY (inhibitory concentration IC50, inhibition of amyloid β production)): ≤ 25 nM

Molecule: CC(CNC(=O)OCCc1ccccc1[C@@H](C)N(c1cc(F)ccc1F)S(=O)(=O)c1ccc(Cl)cc1)c1ccccc1 (stereo partly drawn) [Example 402, 2-[2-((1R)-1-{[(4-chlorophenyl)sulfonyl]-2,5-difluoroanilino}ethyl)phenyl]ethyl 2-phenylpropylcarbamate]
- IC50 [5]: 50 to 100 nM

Molecule: O=S(=O)(c1ccc(Cl)cc1)N(Cc1ccccc1OCCCN1CCCC(O)C1)c1ccccc1 (stereo not shown) [Example 310, 4-Chloro-N-{2-[3-(3-hydroxy-1-piperidinyl)propoxy]benzyl}-N-phenylbenzenesulfonamide Hydrochloride]
- IC50 [7]: 50 to 100 nM

Molecule: COCCCNC(=O)[C@@H](C)N(c1cc(Cl)ccc1F)S(=O)(=O)c1ccc(Cl)cc1 [Example 1346]
- IC50 [2]: 100 to 500 nM

Molecule: N-{3-[2-(1-{3-[2-(1-{[(4-chlorophenyl)sulfonyl]-2,5-difluoroanilino}ethyl)phenoxy]butyl}-2-cyclohexyl-N-methylacetamide [Example 686]
- IC50 [3]: 100 to 500 nM

Molecule: O=S(=O)(c1ccc(Cl)cc1)N(Cc1ccccc1OCCCN1CCC(O)(C(F)(F)F)CC1)c1ccccc1 [Example 833, 4-chloro-N-(2-{3-[4-hydroxy-4-(trifluoromethyl)-1-piperidinyl]propoxy}benzyl)-N-phenylbenzenesulfonamide hydrochloride]
- IC50 [1]: 100 to 500 nM

Molecule: CC(C)CNS(=O)(=O)CCC[C@@H](C)N(c1cc(Cl)ccc1Cl)S(=O)(=O)c1ccc(Cl)cc1 [Example 1216, 4-chloro-N-[2,5-dichlorophenyl]-N-[4-[(2-methylpropylamino)sulfonyl]-1(R)-methylbutyl]benzenesulfonamide]
- IC50 (Homo sapiens, 16 h, transfected H4 cells stably expressing APP constructs, approximately 16 hours incubation, read-out: ACTIVITY (IC50, inhibition of amyloid β production)): 50 to 100 nM

Molecule: C[C@H](C(=O)NCCN1CCCCC1)N(c1cc(Cl)ccc1F)S(=O)(=O)c1ccc(Cl)cc1 [Example 1352]
- IC50 [2]: > 500 nM

Molecule: CC(C)CC(C)C(=O)N(C)CCOc1ccccc1C(C)N(c1cc(F)ccc1F)S(=O)(=O)c1ccc(Cl)cc1 (stereo not shown) [Example 930, N-{2-[2-(1-{[(4-chlorophenyl)sulfonyl]-2,5-difluoroanilino}ethyl)phenoxy]ethyl}-N,2,4-trimethylpentamide]
- IC50 [4]: > 500 nM

Molecule: C[C@H](c1ccccc1CCOC(=O)NCc1ccccc1)N(c1cc(F)ccc1F)S(=O)(=O)c1ccc(Cl)cc1 [Example 389, 2-[2-((1R)-1-{[(4-chlorophenyl)sulfonyl]-2,5-difluoroanilino}ethyl)phenyl]ethyl benzylcarbamate]
- IC50 [5]: 50 to 100 nM

Molecule: 2-((1R)-1-{[(4-chlorophenyl)sulfonyl]-2,5-difluoroanilino}ethyl)-5-fluorobenzyl sec-butylcarbamate [Example 795]
- IC50 [3]: 100 to 500 nM

Molecule: C[C@H](CCN1CCCC(S(C)(=O)=O)C1)N(c1cc(Cl)ccc1Cl)S(=O)(=O)c1ccc(Cl)cc1 (stereo partly drawn) [Example 1118, 4-chloro-N-(2,5-dichlorophenyl)-N-[3-[(3-methylsulfonyl)-1-piperidinyl]-1(R)-methylpropyl]benzenesulfonamide]
- IC50 [6]: 25 to 50 nM

Molecule: 2-((1R)-1-{[(4-chlorophenyl)sulfonyl]-2,5-difluoroanilino}ethyl)benzyl isopropylcarbamate [Example 674]
- IC50 [3]: 100 to 500 nM

Molecule: COC(=O)[C@@H](NC(=O)CCCC[C@@H](C)N(c1cc(Cl)ccc1F)S(=O)(=O)c1ccc(Cl)cc1)C(C)C [Example 1261, (R)-4-Chloro-N-(5-chloro-2-fluorophenyl)-N-[6-[N-(S)-[1-(methoxycarbonyl)-2-methylpropyl]amino]-1-methyl-6-oxohexyl]benzenesulfonamide]
- IC50 [6]: ≤ 25 nM

Molecule: COC(=O)[C@@H](NC(=O)CC[C@@H](C)N(c1cc(Cl)ccc1F)S(=O)(=O)c1ccc(Cl)cc1)C(C)C [Example 537, (R)-4-Chloro-N-(5-chloro-2-fluorophenyl)-N-[4-[N-(S)-[1-(methoxycarbonyl)-2-methylpropyl]amino]1-methyl-4-oxobutyl]benzenesulfonamide]
- IC50 [7]: 100 to 500 nM

Molecule: O=S(=O)(c1ccc(Cl)cc1)N(Cc1ccccc1C#CCCO)c1ccccc1 [Example 1040, 4-chloro-N-[2-(4-hydroxy-1-butynyl)benzyl}-N-phenylbenzenesulfonamide]
- IC50 [1]: > 500 nM

Molecule: N-{3-[2-(1-{[(4-chlorophenyl)sulfonyl]-2,5-difluoroanilino}ethyl)phenoxy]propyl}-2,3,4,5 tetrafluorobenzamide [Example 863]
- IC50 [4]: 100 to 500 nM
